This is an account of results in patent publication US20170211048A1, “ENHANCED REPROGRAMMING TO IPS CELLS” (Boehringer Ingelheim International GmbH, priority 2014, published 2017).

What all share (type): cell-based, mouse
Data set [1] has as its system Reprogrammable transgenic MEFs (Tet-OKSM, Rosa26-rtTAM2, Oct4-GFP). Put plainly: transient siRNA transfection during iPSC reprogramming. The settings on record: siRNA transfected 1 to 3 times during doxycycline treatment. An excerpt: FIG. 26: Transient suppression of Chaf1a, Chaf1b or Ube2i using siRNA transfection enhances iPSC reprogramming. Reprogrammable transgenic MEFs (Tet-OKSM, Rosa26-rtTAM2, Oct4-GFP) where transfected 1 to 3 times at the indicated days of doxycyline treatment with siRNAs targeting Renilla, Chaf1a, Chaf1b, Ube2i. Shown is the fraction of Oct4-GFP positive cells after 11 days. […] Suppression of these targets at early time points of reprogramming (day 1-3 following OKSM expression) seems critical and sequential transfections at different days can enhance this effect. […] The siRNA molecules used in the study have the following sequence: Ube2i.414—2: […] (SEQ ID NO:103), Chaf1a.3120 […] (SEQ ID NO:104), Chaf1b.271 […] (SEQ ID NO:105) and Ren.713 […] (SEQ ID NO:106).

Data set [2] deals with Oct4-GFP;CAGGS-rtTA3 double-transgenic MEFs. The data set is described as follows: short-term transient OKSM expression and Tet-regulated shRNA. Particulars: doxycycline for 2 or 4 days. The procedure:
FIG. 22: Short-term transient expression of OKSM and suppression of Chaf1a for only 2-4 days enable robust iPSC reprogramming. Oct4-GFP;CAGGS-rtTA3 double-transgenic MEFs were first transduced with a Tet-regulatable shRNA expression vector encoding a potent Chaf1a shRNA (T3G-mCherry-miRE.Chaf1a.3118), and 3 days later transduced with lentiviral vectors inducibly expressing OKSM from the Tet-responsive promoters TRE (TetO-STEMCCA) or TRE3G (T3G-4Fpuro). Cell were treated with doxycyline for 2 or 4 days starting at day in OKSM infection, triggering a transient and reversible OKSM expression and Chaf1a suppression. Shown is the percentage of Oct4-GFP positive cells at day 11 after lentiviral infection. Error bars indicate standard deviation (SD) of 3 biological replicates. Suppression of Chaf1a, Chaf1b and Ube2i enhance iPSC reprogramming in the use of both Tet-inducible OKSM expression vectors.

Data set [3] has as its system MEFs with doxycycline inducible reprogramming factors. The data set is described as follows: iPS colony formation assay in serum replacement, LIF and 2i. Particulars: 2i plus LIF at single cell density, 10000 cells/10 cm dish, doxycycline 7 days. The source says: In order to test the achieved factor of iPS formation enhancement in a colony formation assay, we chose optimal conditions described for iPS formation, i.e. serum replacement, LIF and 2i. The two inhibitors (2i) are shown to support the ground state of pluripotency and enhance iPS formation. More specifically, 2i supports the transition of pre-iPS cells to iPS cells.
In doing so, we intended to measure the factor of improvement in optimal, potentially saturated conditions. 10000 cells were plated/10 cm dish and reprogramming was induced by addition of doxycycline for 7 days. Reprogramming in presence of 2i furthermore represents an additional condition to test versatility of herein described enhanced reprogramming regimen. […]

Another data set has as its system OSKM/RR/OG-MEFs. Put plainly: single-shRNA validation, flow cytometry of the Oct4-GFP reporter. The settings on record: FIG. 1, day 11 after doxycycline induction; DMEM with FCS and ascorbate. The protocol:
To validate hits identified in the primary multiplexed screen, a set of 32 independent shRNAs including several of the top hits as well as a panel of intermediately scoring shRNAs were tested in single assays. To this end, OSKM/RR/OG-MEFs were transduced with individual pLENC shRNAs in biological triplicates, selected, and treated with Dox for OSKM induction. The iPS reprogramming efficacy was quantified using flow cytometry analysis of the Oct-4-GFP reporter (FIG. 1) and microscopy (FIG. 2a).
To this end, described MEFs with doxycycline inducible reprogramming factors (OSKM, 4F, Yamanaka factors) were transduced with pLENC-shRNA vectors (co-expressing miRE-based shRNAs, mCherry and a Neo resistance gene) in biological triplicate as described previously. Selection for infected cells was based on G418 resistance. 3 days after infection, cells were trypsinized and each replicate was plated in multiple wells in presence of FCS and ascorbate containing medium as well as doxycycline. Cells were subjected to various conditions for iPS formation starting 24 h after Doxycycline addition, i.e. prior to expected full expression of OSKM factors. Doxycycline was added to media for 7 days. […]
shRNAs were transduced into OSKM MEFs. […] Cells were analyzed using a FACS BD LSRFortessa.

For another data set, the system named is reprogrammable MEFs. The data set is described as follows: FACS based timeline of Oct4-GFP expression during reprogramming. The settings on record: days of OKSM expression, FIG. 3. The source says: In order to observe the kinetics of reprogramming in the enhanced reprogramming regimen, we quantified GFP positive cells using FACS analysis. GFP driven from the endogenous Oct4 locus serves as a marker for Oct4 expression and thus iPS and possibly pre-iPS state. […] In contrast, Ube2i suppression only slightly accelerated the reprogramming timeline, but made the process much more efficient, and ultimately exceeds the effects of observed for Caf-1 suppression (i.e. the percentage of GFP+ cells actually overtakes the enhancement achieve through Caf-1 suppression at day 10).
The inventors further decided to examine the effects of the gene expression reduction in the absence of the identified chromatin barriers, by following the emergence of Oct4-GFP^+ cells over time. While suppression of Ube2i promoted Oct4-GFP activation slightly earlier than controls (day six with Ube2i shRNA vs. day nine with Renilla shRNA), the suppression of either CAF-1 subunit triggered a dramatic acceleration of this process and consistently generated Oct4-GFP+ cells as early as four days of OKSM expression (FIG. 3). Similar effects were observed by flow cytometry-based analysis of Nanog expression (FIG. 15).

For “CACAATTTACTGCCAAAACAA (listed as DNA, chemistry not fully specified) [Ube2i.414—2]”, the “effect on fraction of Oct4-GFP positive cells after 11 days” value in data set [1] is “enhances reprogramming”. For the substance “CAGCTACTTCCAAATTGTAAA (listed as DNA, chemistry not fully specified) [Chaf1a.3120]”, in data set [1], the “effect on fraction of Oct4-GFP positive cells after 11 days” value is on record as “enhances reprogramming”.

As for “UUUACAAUUUGGAAGUAGCUG (expressed or natural sequence) [Chaf1a.3118]”, the “iPS cell formation (Oct4-GFP positive cells at day 11)” value in data set [2] is “robust formation of iPS cells”.

“shRNA.Ren.713: neutral control shRNA (Ren.713) targeting Renilla (guide AGGAATTATAATGCTTATCTA)”: the Colony number in data set [3] came to 0. Further, the “Oct4-GFP+ cells” value in the data set with OSKM/RR/OG-MEFs is < 1%. Besides, the “time of Oct4-GFP activation” value with reprogrammable MEFs is listed as “day nine”.
